# In the supplement of paper PMC11208160:
# Test: recombinant barcode read abundance after kanamycin selection (control-corrected) (log10(CPM+1)); higher = more efficient recombination; sequences stand for … in AGTGCAGAGAAAATCGGCCAGTTTTCTCTGCCTGCAGTCCGCATGCCGT…AGATTTATGCAGCGGACTGCCTTTCTCCCAAAGTGATAAACCGGACAGTATCATGGACCGGTTTTCCCGGTAATCCGTATTTGCAAGGTTGGTTTCACT; site = the 11-nt target
# Procedure, shortened: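 Recombination efficiency draws on barcodes counted at recombinant junctions in a pooled E. coli screen of targets paired with IS621 bridge RNA target-binding loops. The counts were converted to counts per million, averaged and corrected against the chloramphenicol/ampicillin LB agar control, then reported as log10(CPM+1). Selection plates held chloramphenicol/ampicillin/kanamycin with 0.1 mM IPTG, with two replicates per condition.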
# 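Further: IS621 recombinase and bridge RNA in Escherichia coli cells.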
row,Sequence,recombinant barcode read abundance (log10)
1,TAACCTCCTTGGGTTCTAACCTGTTGCCT (site TAACCTACTAG),0.0181
2,TAACCTCCTTGGGTTCTAACCTGTTGCCT (site TAACCTCCTAG),0.444
3,TAACCTCCTTGGGTTCTAACCTGTTGCCT (site TAACCTGCTAG),0.0867
4,TAACCTCCTTGGGTTCTAACCTGTTGCCT (site TAACCTTCTAG),0.127
5,TAACGACCTTGGGTTCTAACCTGTTGCCT (site AAACGACCTAG),0
6,TAACGACCTTGGGTTCTAACCTGTTGCCT (site CAACGACCTAG),0.055
7,TAACGACCTTGGGTTCTAACCTGTTGCCT (site GAACGACCTAG),0.0956
8,TAACGACCTTGGGTTCTAACCTGTTGCCT (site TAACGACCTAG),1.42
9,TAACGGCCTTGGGTTCTAACCTGTTGCCT (site TAACGGCCTAG),0.539
10,TAACGGCCTTGGGTTCTAACCTGTTGCCT (site TACCGGCCTAG),0.504
11,TAACGGCCTTGGGTTCTAACCTGTTGCCT (site TAGCGGCCTAG),0.198
12,TAACGGCCTTGGGTTCTAACCTGTTGCCT (site TATCGGCCTAG),0.0776
13,TAACGTCCTTGGGTTCTAACCTGTTGCGT (site TAACGTACTCC),0.0665
14,TAACGTCCTTGGGTTCTAACCTGTTGCGT (site TAACGTCCTAC),1.4
15,TAACGTTCTTGGGTTCTAACCTGTTGCCT (site TAACGTTCTAG),0.385
16,TAACGTTCTTGGGTTCTAACCTGTTGCCT (site TACCGTTCTAG),0.0273
17,TAAGATCCTTGGGTTCTAACCTGTTGCCT (site TAAGATCCTAG),1.63
18,TAAGATCCTTGGGTTCTAACCTGTTGCCT (site TAGGCTCCTAG),0.0611
19,TAAGCTACTTGGGTTCTAACCTGTTGCTG (site TAAGCCTCTCA),0.0237
20,TAAGCTACTTGGGTTCTAACCTGTTGCTG (site TAAGCTACTCA),0.885
21,TACAATTCTTGGGTTCTAACCTGTTGCAT (site GGGCTCCCTCG),0.0564
22,TACAATTCTTGGGTTCTAACCTGTTGCAT (site TACAATTCTAT),0.03

row,Sequence,recombinant barcode read abundance (log10)
1,TACAGCCCTTGGGTTCTAACCTGTTGCCT (site TACAGCCCTAG),0.932
2,TACAGCCCTTGGGTTCTAACCTGTTGCCT (site TTCAGCCCTAG),0.183
3,TACAGTACTTGGGTTCTAACCTGTTGCCT (site AACAGTACTAG),0.0317
4,TACAGTACTTGGGTTCTAACCTGTTGCCT (site CACAGTACTAG),0.326
5,TACAGTACTTGGGTTCTAACCTGTTGCCT (site GACAGTACTAG),0.325
6,TACAGTACTTGGGTTCTAACCTGTTGCCT (site TACAGTACTAG),0.291
7,TACATCCCTTGGGTTCTAACCTGTTGCCG (site TACATCCCTAG),0.0934
8,TACATCCCTTGGGTTCTAACCTGTTGCCG (site TACATCCCTCG),0.623
9,TACATCCCTTGGGTTCTAACCTGTTGCCG (site TACATCCCTGG),0.0502
10,TACATCCCTTGGGTTCTAACCTGTTGCCG (site TACATCCCTTG),0.0738
11,TACCAGACTTGGGTTCTAACCTGTTGCCT (site TACCAGACTAG),1.26
12,TACCAGACTTGGGTTCTAACCTGTTGCCT (site TACCCGACTAG),0.033
13,TACCAGACTTGGGTTCTAACCTGTTGCCT (site TACCGGACTAG),0.191
14,TACCAGACTTGGGTTCTAACCTGTTGCCT (site TACCTGACTAG),0.0512
15,TACCCTTCTTGGGTTCTAACCTGTTGCGT (site CCTAAGCCTCA),0.0691
16,TACCCTTCTTGGGTTCTAACCTGTTGCGT (site TACCCTTCTAC),1.84
17,TACCGGACTTGGGTTCTAACCTGTTGCCT (site TACCAGACTAG),0.252
18,TACCGGACTTGGGTTCTAACCTGTTGCCT (site TACCCGACTAG),0.139
19,TACCGGACTTGGGTTCTAACCTGTTGCCT (site TACCGGACTAG),1.56
20,TACCGGACTTGGGTTCTAACCTGTTGCCT (site TACCTGACTAG),0.0144
21,TACCGGTCTTGGGTTCTAACCTGTTGCTT (site TACCAGTCTAA),0.18
22,TACCGGTCTTGGGTTCTAACCTGTTGCTT (site TACCCGTCTAA),0.13

row,Sequence,recombinant barcode read abundance (log10)
1,TACCGGTCTTGGGTTCTAACCTGTTGCTT (site TACCGGTCTAA),1.46
2,TACCGGTCTTGGGTTCTAACCTGTTGCTT (site TACCTGTCTAA),0.00501
3,TACCTAACTTGGGTTCTAACCTGTTGCTT (site GGTTCCTCTCC),0.206
4,TACCTAACTTGGGTTCTAACCTGTTGCTT (site TACCTAACTAA),0.0655
5,TACCTGCCTTGGGTTCTAACCTGTTGCGT (site GCCCTGCCTAC),0.0159
6,TACCTGCCTTGGGTTCTAACCTGTTGCGT (site TACCTGCCTAC),1.27
7,TACCTGTCTTGGGTTCTAACCTGTTGCTT (site TACCAGTCTAA),0.139
8,TACCTGTCTTGGGTTCTAACCTGTTGCTT (site TACCCGTCTAA),0.251
9,TACCTGTCTTGGGTTCTAACCTGTTGCTT (site TACCGGTCTAA),0.543
10,TACCTGTCTTGGGTTCTAACCTGTTGCTT (site TACCTGTCTAA),1.77
11,TACGACGCTTGGGTTCTAACCTGTTGCCT (site TAAGACGCTAG),0.0663
12,TACGACGCTTGGGTTCTAACCTGTTGCCT (site TACGACGCTAG),0.756
13,TACGACGCTTGGGTTCTAACCTGTTGCCT (site TAGGACGCTAG),0.0186
14,TACGACGCTTGGGTTCTAACCTGTTGCCT (site TATGACGCTAG),0.128
15,TACGATACTTGGGTTCTAACCTGTTGCGT (site CTACGACCTCT),0.0489
16,TACGATACTTGGGTTCTAACCTGTTGCGT (site TACGATACTAC),1.19
17,TACGCTCCTTGGGTTCTAACCTGTTGCGT (site TACGCTCCTAA),0.0715
18,TACGCTCCTTGGGTTCTAACCTGTTGCGT (site TACGCTCCTAC),0.108
19,TACGCTCCTTGGGTTCTAACCTGTTGCGT (site TACGCTCCTAG),0.0936
20,TACGCTCCTTGGGTTCTAACCTGTTGCGT (site TACGCTCCTAT),0.501
21,TACGGTCCTTGGGTTCTAACCTGTTGCTT (site TACGGTCCTAA),1.08
22,TACGGTCCTTGGGTTCTAACCTGTTGCTT (site TAGGCTCCTAA),0.261

row,Sequence,recombinant barcode read abundance (log10)
1,TACGTGGCTTGGGTTCTAACCTGTTGCCT (site TACGAGGCTAG),0.182
2,TACGTGGCTTGGGTTCTAACCTGTTGCCT (site TACGCGGCTAG),0.0139
3,TACGTGGCTTGGGTTCTAACCTGTTGCCT (site TACGGGGCTAG),0.502
4,TACGTGGCTTGGGTTCTAACCTGTTGCCT (site TACGTGGCTAG),0.825
5,TACGTGTCTTGGGTTCTAACCTGTTGCTA (site TACGTGTCTTA),2.19
6,TACGTGTCTTGGGTTCTAACCTGTTGCTA (site TGCGTGTCTCA),0.051
7,TACTAACCTTGGGTTCTAACCTGTTGCCT (site CATTAACCTAG),0.0235
8,TACTAACCTTGGGTTCTAACCTGTTGCCT (site TACTAACCTAG),0.752
9,TACTACCCTTGGGTTCTAACCTGTTGCCA (site TACTACCCTTG),0.606
10,TACTACCCTTGGGTTCTAACCTGTTGCCA (site TAGTATCCTTG),0.0944
11,TACTACCCTTGGGTTCTAACCTGTTGCCT (site TACTACCCTAG),1.46
12,TACTACCCTTGGGTTCTAACCTGTTGCCT (site TCCTACCCTAG),0.126
13,TACTACCCTTGGGTTCTAACCTGTTGCCT (site TGCTACCCTAG),0.0397
14,TACTACCCTTGGGTTCTAACCTGTTGCCT (site TTCTACCCTAG),0.0291
15,TACTGGGCTTGGGTTCTAACCTGTTGCGG (site TACTGGGCTCA),0.316
16,TACTGGGCTTGGGTTCTAACCTGTTGCGG (site TACTGGGCTCC),2.2
17,TACTTACCTTGGGTTCTAACCTGTTGCCT (site TACTTACCTAG),0.362
18,TACTTACCTTGGGTTCTAACCTGTTGCCT (site TTCTTACCTAG),0.0922
19,TACTTAGCTTGGGTTCTAACCTGTTGCCG (site TACTTAGCTCG),0.075
20,TACTTAGCTTGGGTTCTAACCTGTTGCCG (site TAGTTACCTCG),0.0382
